Assay results reported in US10189795B2, “Aryl amine substituted quinoxaline used as anticancer drugs” (priority 2014, dated 2019).

Experiments:
PLC5 xenograft tumor = PLC5 xenograft tumor growth in nude mice; assay type: in vivo; settings: 10 mg/kg, oral gavage daily, 4 weeks, vs control arm
Description: Male NCr athymic nude mice (5-7 weeks of age) were obtained from the National Laboratory Animal Center (Taipei, Taiwan). All experimental procedures using these mice were performed in accordance with protocols approved by the Institutional Laboratory Animal Care and Use Committee of National Taiwan University. Each mouse was inoculated subcutaneously in the dorsal flank with 1×10^6 PLC5 or A549 cells suspended in serum-free medium containing 50% Matrigel (BD Biosciences, Bedford, Mass., USA). When tumors reached 100-150 mm^3, mice were treated with sorafenib, the erlotinib derivatives of the present invention, or vehicle (control) at 10 mg/kg/day daily by oral gavage for 4 weeks.
The present invention used a PLC5 xenograft mouse model to assess the effects of TD-52 in vivo. The present choose sorafenib as one of the comparative treatment arms. Tumor-bearing mice were administered sorafenib (10 mg/kg), TD-52 (10 mg/kg) or DMSO (vehicle, as control). […] The present invention further examined the xenografted tumors taken from mice receiving TD-52 and vehicle to confirm the molecular events in the tumor tissue. […] When PP2A activity was enhanced by TD-52, Akt was dephosphorylated, promoting HCC cell apoptosis.

NCI-1703 = experiment: cell viability of NCI-1703 cells, 1 and 10 uM of each erlotinib derivative, and IC50; assay type: cell-based; settings: Homo sapiens
Description: [Worded in the source for another cell line; this cell line is reported under the same test.] (§1) Sorafenib (Nexavar), erlotinib (Tarceva) and Paclitaxel were kindly provided by Bayer Pharmaceuticals (Pittsburgh, Pa., USA) and Roche Pharmaceuticals (Basel, Switzerland) respectively. Okadaic acid (OA) was purchased from Cayman Chemical (Ann Arbor, Mich., USA) and z-VAD-fmk was obtained from Sigma (St. Louis, Mo., USA). For in vitro studies, drugs at various concentrations were dissolved in dimethyl sulfoxide (DMSO), and added to cells in Dulbecco's modified Eagle's medium (DMEM) or Roswell Park Memorial Institute (RPMI) containing 5% fetal bovine serum (FBS).
(§2) The Sk-Hep1, PLC/PRF/5 (PLC) and Hep3B cell lines were obtained from American Type Culture Collection (ATCC; Manassas, Va., USA). The Huh-7 HCC cell line was obtained from the Health Science Research Resources Bank (HSRRB; Osaka, Japan; JCRB0403). Cells were maintained in DMEM supplemented with 10% FBS in a 37° C. humidified incubator in an atmosphere of 5% CO^2 in air.

A549 = experiment: cell viability of A549 cells, 1 and 10 uM; assay type: cell-based; settings: Homo sapiens
Description: [Worded in the source for another cell line; this cell line is reported under the same test.] as §1, §2

NCI-H226 = experiment: cell viability of NCI-H226 cells, 1 and 10 uM; assay type: cell-based; settings: Homo sapiens
Description: [Worded in the source for another cell line; this cell line is reported under the same test.] as §1, §2

SW900 = experiment: cell viability of SW900 cells, 1 and 10 uM; assay type: cell-based; settings: Homo sapiens
Description: [Worded in the source for another cell line; this cell line is reported under the same test.] as §1, §2

H358 = experiment: cell viability of H358 cells, 1 and 10 uM; assay type: cell-based; settings: Homo sapiens, NCI-H358
Description: [Worded in the source for another cell line; this cell line is reported under the same test.] as §1, §2

BA (%), Table 5 = settings: in vivo
H520 = experiment: cell viability of H520 cells, 1 and 10 uM; assay type: cell-based; settings: Homo sapiens, NCI-H520
Description: [Worded in the source for another cell line; this cell line is reported under the same test.] as §1, §2

H2170 = experiment: cell viability of H2170 cells, 1 and 10 uM; assay type: cell-based; settings: Homo sapiens, NCI-H2170
Description: [Worded in the source for another cell line; this cell line is reported under the same test.] as §1, §2

SET-PP2Ac binding = target: T1, SET-PP2Ac binding (Homo sapiens, UniProt Q01105); experiment: disruption of SET-PP2Ac binding (surface plasmon resonance, co-IP)
T1 construct: His; purchased Genway (SET-His); Abnova (PP2Ac-GST) GWB-ATG319; H00005515
T1 sequence (Q01105 1-277 isoform Q01105-2): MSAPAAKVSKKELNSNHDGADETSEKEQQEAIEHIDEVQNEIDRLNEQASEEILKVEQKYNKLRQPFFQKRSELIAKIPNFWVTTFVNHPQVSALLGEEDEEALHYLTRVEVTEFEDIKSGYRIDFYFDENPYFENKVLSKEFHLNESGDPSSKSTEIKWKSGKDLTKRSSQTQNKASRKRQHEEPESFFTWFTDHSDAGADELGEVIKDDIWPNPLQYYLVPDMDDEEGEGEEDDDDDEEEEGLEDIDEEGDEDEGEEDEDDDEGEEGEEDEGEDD
Description: Binding affinities of full-length SET and truncated SET to PP2Ac and the effect of the erlotinib derivatives of the present invention on disrupting SET and PP2Ac were analyzed. PP2Ac-GST recombinant protein was bound in the CMS chip pre-coated with GST-capture antibodies. Sensorgrams were generated by injecting several concentrations of the erlotinib derivatives of the present invention mixed with fixed-concentration of SET recombinant protein, or the mixture of different concentration of truncated SET proteins in a fixed-dose EMQA. PP2Ac-GST recombinant protein used for this experiment was purchased from Abnova (H00005515) and SET-His recombinant protein was obtained from Genway (GWB-ATG319).
EMQA reactivates PP2A by disrupting the binding of SET-PP2Ac. To validate the role of SET, the present invention generated Hep3B cells with ectopic expression of myc-tagged SET by transient transfection. […] With a fixed amount of PP2Ac coated on the CM chip, the present invention tested the effects of a fixed-dose of EMQA on interfering different proportions of full-length and truncated forms of SET proteins in SPR system. […] To validate the findings of this ex vivo system, the present invention generated cells with ectopic overexpression of these two truncated forms of Flag-tagged SET proteins by transient transfections.

PP2A = PP2A phosphatase activity (malachite green-phosphate assay in cell lysate); assay type: cell-based
Description: The protein phosphatase activity in each cell lysate was determined by measuring the generation of free phosphate from threonine phosphopeptide using the malachite green-phosphate complex assay as described by the manufacturer (Upstate Biotechnology, Lake Placid, N.Y., USA). In brief, HCC cell lysates were first prepared in a low-detergent lysis buffer. […] After incubation for 10 min at 30° C., the malachite dye was added and free phosphate was measured by optical density at 650 nm. In order to avoid variation resulting from differences in the amount of immunoprecipitation protein between samples, the phosphatase activities were normalized to the amounts of PP2A immunoprecipitated, which were detected and quantified by immunoblot analysis for each treatment group.

| BA (%) (BA (%), Table 5) | minimal concentration to disrupt SET-PP2Ac binding (SET-PP2Ac binding) | SMILES | tumor size (PLC5 xenograft tumor) | viability at 1 µM (NCI-1703) | viability at 10 µM (NCI-1703) | viability at 1 µM (A549) | viability at 10 µM (A549) | viability at 1 µM (NCI-H226) | viability at 10 µM (NCI-H226) | viability at 1 µM (SW900) | viability at 10 µM (SW900) | viability at 1 µM (H358) | viability at 10 µM (H358) | viability at 1 µM (H520) | viability at 10 µM (H520) | viability at 1 µM (H2170) | viability at 10 µM (H2170) | IC50 (NCI-1703; cell viability) | minimal concentration for PP2A activation (PP2A) |
| --- | --- | --- | --- | --- | --- | --- | --- | --- | --- | --- | --- | --- | --- | --- | --- | --- | --- | --- | --- |
|  |  | CNC(=O)c1cc(Oc2ccc(NC(=O)Nc3ccc(Cl)c(C(F)(F)F)c3)cc2)ccn1 [sorafenib, reference compound] | smaller than those of the control arm |  |  |  |  |  |  |  |  |  |  |  |  |  |  |  |  |
| 62% |  | C#Cc1cccc(Nc2nc3cc([N+](=O)[O-])ccc3nc2Nc2ccc(O)cc2)c1 [TD619, 4-(2-(3-ethynylphenylamino)-7-nitroquinoxalin-3-ylamino)phenol] |  | 119 ± 11.2% | 33.6 ± 5.4% | 105 ± 19.5% | 20.9 ± 1.7% | 110 ± 18.2% | 19.5 ± 0.7% |  |  | 87.5 ± 3.6% | 22.1 ± 0.6% |  |  |  |  |  |  |
| 57% | 50 to 100 nM | C#Cc1cccc(Nc2nc3ccc([N+](=O)[O-])cc3nc2Nc2cccc(C#C)c2)c1 [TD604, N^2,N^3-bis(3-ethynylphenyl)-6-nitroquinoxaline-2,3-diamine] |  | 15.2 ± 0.5% | 12.5 ± 0.3% | 117 ± 7.2% | 132 ± 5.1% | 40.3 ± 1.7% | 5.3 ± 0.3% | 86.1 ± 22.8% | 0% | 115 ± 9% | 116 ± 8.5% | 30.5 ± 13.9% | 0.99 ± 0.02% | 74.7 ± 6.38% | 2.06 ± 0.66% | 0.6 µM | <50 nM |

| SMILES | BA (%) (BA (%), Table 5) | minimal concentration to disrupt SET-PP2Ac binding (SET-PP2Ac binding) | tumor size (PLC5 xenograft tumor) | viability at 1 µM (NCI-1703) | viability at 10 µM (NCI-1703) | viability at 1 µM (A549) | viability at 10 µM (A549) | viability at 1 µM (NCI-H226) | viability at 10 µM (NCI-H226) | viability at 1 µM (SW900) | viability at 10 µM (SW900) | viability at 1 µM (H358) | viability at 10 µM (H358) | viability at 1 µM (H520) | viability at 10 µM (H520) | viability at 1 µM (H2170) | viability at 10 µM (H2170) | IC50 (NCI-1703; cell viability) | minimal concentration for PP2A activation (PP2A) |
| --- | --- | --- | --- | --- | --- | --- | --- | --- | --- | --- | --- | --- | --- | --- | --- | --- | --- | --- | --- |
| Cc1ccc(Nc2nc3ccccc3nc2Nc2ccc(C)c(O)c2)cc1O [TD66, 5,5′-(quinoxaline-2,3-diylbis(azanediyl))bis(2-methylphenol)] | 22% |  |  | 84.5 ± 2.3% | 10.1 ± 0.2% | 55.5 ± 5.1% | 11.1 ± 0.6% | 71.2 ± 1.2% | 4.7 ± 0.1% | 113 ± 4.64% | 77.4 ± 20.5% | 96.6 ± 0.9% | 14.9 ± 3% | 104 ± 8.53% | 51.7 ± 20.5% | 101.5 ± 0.48% | 3.7 ± 1.37% |  |  |
